Data as given in patent publication US20230085307A1, “PYRIDAZINONE COMPOUND AND HERBICIDE” (NISSAN CHEMICAL CORPORATION, priority 2019, published 2023).

Tests used:
blackgrass = experiment: Test Example 5: herbicidal effect by foliage application, plastic box (Table 20, symbol J); format: in vivo, blackgrass (Alopecurus myosuroides); details: foliage application
Summary of the method: (§1)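 Plants sown in sterilized diluvial soil and grown 14 days in a greenhouse at 25° C to 30° C, then sprayed on the foliage with the compound's emulsion diluted in water to a predetermined herbicide amount. Injury to weeds and crops scored three weeks after application on a visual rating scale.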

redroot pigweed [1] = experiment: Test Example 4: herbicidal effect by soil treatment (Table 19, symbol N); format: in vivo, redroot pigweed (Amaranthus retroflexus)
Summary of the method: (§2)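 Three weeks of greenhouse growth at 25° C. to 30° C. followed a uniform surface spray of water-diluted emulsion at a predetermined herbicide amount. Seeds had been sown beforehand under about 1.5 cm of sterilized diluvial soil. Grading followed criteria set out in an earlier test.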

barnyard grass [2] = experiment: Test Example 3: herbicidal effect by foliage application, Wagner pot (Table 18, symbol H); format: in vivo, barnyard grass (Echinochloa crus-galli); details: for herbicidal effect on H (barnyard grass), rating 0-5: 320 g/ha
Summary of the method: (§3)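 Plants were sown in alluvial soil held under 0.1–0.5 cm standing water and grown 14 days in a greenhouse at 25–30 °C. An emulsifiable formulation, water-diluted to the set dose, was then sprayed onto the foliage, and effects were scored three weeks later using previously defined criteria.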

rice flat sedge = experiment: Test Example 3: herbicidal effect by foliage application, Wagner pot (Table 18, symbol E); format: in vivo, rice flat sedge (Cyperus iria); details: for herbicidal effect on E (rice flat sedge), rating 0-5: 320 g/ha
Summary of the method: as §3

Japanese bulrush = experiment: Test Example 2: herbicidal activity, application during weed generation under submerged conditions (Table 17, symbol B); format: in vivo, Japanese bulrush (Schoenoplectus juncoides); details: application during weed generation, submerged conditions
Summary of the method: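 Wagner pot, alluvial soil, 4 cm flood; mixed sowing of all species; greenhouse 25° C.–30° C. Emulsifiable formulation, water-diluted to predetermined dose, applied to paddy water at 1–2 leaf stage. Effect rated at 3 wk using the earlier test's scoring criteria.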

southern crabgrass = experiment: Test Example 5: herbicidal effect by foliage application, plastic box (Table 20, symbol F); format: in vivo, southern crabgrass (Digitaria ciliaris); details: foliage application
Summary of the method: as §1

chickweed [3] = experiment: Test Example 5: herbicidal effect by foliage application, plastic box (Table 20, symbol P); format: in vivo, common chickweed (Stellaria media); details: foliage application
Summary of the method: as §1

late watergrass = experiment: Test Example 1: herbicidal activity, application before weed generation under submerged conditions (Table 16, symbol A); format: in vivo, late watergrass (Echinochloa oryzicola); details: for Herbicidal effect on A: late watergrass (grade 0-5): 320 g/ha applied herbicide
Summary of the method: (§4)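 Submerged Wagner pots (alluvial soil, 4 cm water) sown with weed seeds and planted with 2.5-leaf rice seedlings; emulsifiable concentrate diluted in water applied to water surface on sowing day. Held in greenhouse at 25-30 °C; injury scored 0-5 by herbicidal rate after three weeks.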

barnyard grass [4] = experiment: Test Example 4: herbicidal effect by soil treatment (Table 19, symbol H); format: in vivo, barnyard grass (Echinochloa crus-galli)
Summary of the method: as §2

oval-leafed pondweed = experiment: Test Example 1: herbicidal activity, application before weed generation under submerged conditions (Table 16, symbol C); format: in vivo, oval-leafed pondweed (Monochoria vaginalis); details: for Herbicidal effect on C: oval-leafed pondweed (grade 0-5): 320 g/ha applied herbicide
Summary of the method: as §4

green foxtail [5] = experiment: Test Example 5: herbicidal effect by foliage application, plastic box (Table 20, symbol G); format: in vivo, green foxtail (Setaria viridis); details: foliage application
Summary of the method: as §1

green foxtail [6] = experiment: Test Example 4: herbicidal effect by soil treatment (Table 19, symbol G); format: in vivo, green foxtail (Setaria viridis)
Summary of the method: as §2

velvetleaf = experiment: Test Example 4: herbicidal effect by soil treatment (Table 19, symbol M); format: in vivo, velvetleaf (Abutilon theophrasti)
Summary of the method: as §2

chickweed [7] = experiment: Test Example 4: herbicidal effect by soil treatment (Table 19, symbol P); format: in vivo, common chickweed (Stellaria media)
Summary of the method: as §2

Italian ryegrass = experiment: Test Example 5: herbicidal effect by foliage application, plastic box (Table 20, symbol K); format: in vivo, Italian ryegrass (Lolium multiflorum); details: foliage application
Summary of the method: as §1

redroot pigweed [8] = experiment: Test Example 5: herbicidal effect by foliage application, plastic box (Table 20, symbol N); format: in vivo, redroot pigweed (Amaranthus retroflexus); details: foliage application
Summary of the method: as §1

[9] = 320 g/ha, three weeks after application
[10] = amount of applied herbicide 320 g/ha
[11] = 320 g/ha, evaluated three weeks after application
[12] = 80 g/ha, three weeks after application
[13] = amount of applied herbicide 80 g/ha

| Structure (SMILES) | herbicidal effect on H (barnyard grass), rating 0-5 (barnyard grass [2]) | herbicidal effect on E (rice flat sedge), rating 0-5 (rice flat sedge) | herbicidal effect rating, B: Japanese bulrush (Japanese bulrush; AAH 320 g/ha) | Herbicidal effect on A: late watergrass (grade 0-5) (late watergrass) | Herbicidal effect on C: oval-leafed pondweed (grade 0-5) (oval-leafed pondweed) | herbicidal effect on J: blackgrass (blackgrass; [11]) | herbicidal effect rating, N: redroot pigweed (redroot pigweed [1]; 320 g/ha) | herbicidal effect on F: southern crabgrass (southern crabgrass; [11]) | herbicidal effect on P: chickweed (chickweed [3]; [11]) | herbicidal effect rating, H: barnyard grass (barnyard grass [4]; 320 g/ha) | herbicidal effect on G: green foxtail (green foxtail [5]; [11]) | herbicidal effect rating, G: green foxtail (green foxtail [6]; 320 g/ha) | herbicidal effect rating, M: velvetleaf (velvetleaf; 320 g/ha) | herbicidal effect rating, P: chickweed (chickweed [7]; 320 g/ha) | herbicidal effect on K: Italian ryegrass (Italian ryegrass; [11]) | herbicidal effect on N: redroot pigweed (redroot pigweed [8]; [11]) | further results |
| --- | --- | --- | --- | --- | --- | --- | --- | --- | --- | --- | --- | --- | --- | --- | --- | --- | --- |
| CCCC(=O)Oc1c(C)nn(C)c(=O)c1-c1c(-c2ccc(SC)cc2)sc2ccccc12 [1-037] | 5 (Herbicidal rate of 90% or more (almost completely withered)) | 5 (Herbicidal rate of 90% or more (almost completely withered)) | 1 (Herbicidal rate of 5% or more and less than 20%) | 4 (Herbicidal rate of 70% or more and less than 90%) | 3 (Herbicidal rate of 40% or more and less than 70%) | – | – | – | – | – | – | – | – | – | – | – | herbicidal effect grade, J: blackgrass (blackgrass; [9]): 4 (Herbicidal rate of 70% or more and less than 90%); herbicidal effect rating, N: redroot pigweed (redroot pigweed [1]; [10]): 5 (Herbicidal rate of 90% or more (almost completely withered)); herbicidal effect grade, F: southern crabgrass (southern crabgrass; [9]): 3 (Herbicidal rate of 40% or more and less than 70%); herbicidal effect grade, P: chickweed (chickweed [3]; [9]): 5 (Herbicidal rate of 90% or more (almost completely withered)); herbicidal effect rating, H: barnyard grass (barnyard grass [4]; [10]): 2 (Herbicidal rate of 20% or more and less than 40%); herbicidal effect grade, G: green foxtail (green foxtail [5]; [9]): 5 (Herbicidal rate of 90% or more (almost completely withered)); herbicidal effect rating, G: green foxtail (green foxtail [6]; [10]): 5 (Herbicidal rate of 90% or more (almost completely withered)); herbicidal effect rating, M: velvetleaf (velvetleaf; [10]): 3 (Herbicidal rate of 40% or more and less than 70%); herbicidal effect rating, P: chickweed (chickweed [7]; [10]): 4 (Herbicidal rate of 70% or more and less than 90%); herbicidal effect grade, K: Italian ryegrass (Italian ryegrass; [9]): 4 (Herbicidal rate of 70% or more and less than 90%); herbicidal effect grade, N: redroot pigweed (redroot pigweed [8]; [9]): 5 (Herbicidal rate of 90% or more (almost completely withered)) |
| CCCC(=O)Oc1c(C)nn(C)c(=O)c1-c1c(-c2ccc(OC)c(F)c2)sc2ccc(F)cc12 [2-087] | 3 (Herbicidal rate of 40% or more and less than 70%) | 5 (Herbicidal rate of 90% or more (almost completely withered)) | 2 (Herbicidal rate of 20% or more and less than 40%) | 5 (Herbicidal rate of 90% or more (almost completely withered)) | 4 (Herbicidal rate of 70% or more and less than 90%) | 0 (Herbicidal rate of 5% or less (almost no effect)) | 3 (Herbicidal rate of 40% or more and less than 70%) | 0 (Herbicidal rate of 5% or less (almost no effect)) | 5 (Herbicidal rate of 90% or more (almost completely withered)) | 0 (Herbicidal rate of 5% or less (almost no effect)) | 0 (Herbicidal rate of 5% or less (almost no effect)) | 0 (Herbicidal rate of 5% or less (almost no effect)) | 3 (Herbicidal rate of 40% or more and less than 70%) | 3 (Herbicidal rate of 40% or more and less than 70%) | 1 (Herbicidal rate of 5% or more and less than 20%) | 4 (Herbicidal rate of 70% or more and less than 90%) | – |
| CCCC(=O)Oc1c(C)nn(C)c(=O)c1-c1c(-c2ccc(OC)c(OC)c2)sc2ccc(F)cc12 [2-089] | 4 (Herbicidal rate of 70% or more and less than 90%) | 5 (Herbicidal rate of 90% or more (almost completely withered)) | 3 (Herbicidal rate of 40% or more and less than 70%) | 5 (Herbicidal rate of 90% or more (almost completely withered)) | 4 (Herbicidal rate of 70% or more and less than 90%) | 0 (Herbicidal rate of 5% or less (almost no effect)) | 4 (Herbicidal rate of 70% or more and less than 90%) | 3 (Herbicidal rate of 40% or more and less than 70%) | 5 (Herbicidal rate of 90% or more (almost completely withered)) | 4 (Herbicidal rate of 70% or more and less than 90%) | 5 (Herbicidal rate of 90% or more (almost completely withered)) | 5 (Herbicidal rate of 90% or more (almost completely withered)) | 4 (Herbicidal rate of 70% or more and less than 90%) | 3 (Herbicidal rate of 40% or more and less than 70%) | 4 (Herbicidal rate of 70% or more and less than 90%) | 4 (Herbicidal rate of 70% or more and less than 90%) | – |
| Cc1nn(C)c(=O)c(-c2c(-c3ccc(OC4CC4)cc3)sc3ccc(F)cc23)c1O [2-217] | – | – | 3 (Herbicidal rate of 40% or more and less than 70%) | 5 (Herbicidal rate of 90% or more (almost completely withered)) | 4 (Herbicidal rate of 70% or more and less than 90%) | – | – | – | – | – | – | – | – | – | – | – | herbicidal effect on J: blackgrass (criteria 0-5) (blackgrass; [11]): 1 (Herbicidal rate of 5% or more and less than 20%); N: redroot pigweed, herbicidal effect rating (redroot pigweed [1]; [10]): 4 (Herbicidal rate of 70% or more and less than 90%); herbicidal effect on H: barnyard grass (barnyard grass [2]; [10]): 5 (Herbicidal rate of 90% or more (almost completely withered)); herbicidal effect on E: rice flat sedge (rice flat sedge; [10]): 5 (Herbicidal rate of 90% or more (almost completely withered)); herbicidal effect on F: southern crabgrass (criteria 0-5) (southern crabgrass; [11]): 3 (Herbicidal rate of 40% or more and less than 70%); herbicidal effect on P: chickweed (criteria 0-5) (chickweed [3]; [11]): 5 (Herbicidal rate of 90% or more (almost completely withered)); H: barnyard grass, herbicidal effect rating (barnyard grass [4]; [10]): 5 (Herbicidal rate of 90% or more (almost completely withered)); herbicidal effect on G: green foxtail (criteria 0-5) (green foxtail [5]; [11]): 4 (Herbicidal rate of 70% or more and less than 90%); G: green foxtail, herbicidal effect rating (green foxtail [6]; [10]): 1 (Herbicidal rate of 5% or more and less than 20%); M: velvetleaf, herbicidal effect rating (velvetleaf; [10]): 1 (Herbicidal rate of 5% or more and less than 20%); P: chickweed, herbicidal effect rating (chickweed [7]; [10]): 4 (Herbicidal rate of 70% or more and less than 90%); herbicidal effect on K: Italian ryegrass (criteria 0-5) (Italian ryegrass; [11]): 5 (Herbicidal rate of 90% or more (almost completely withered)); herbicidal effect on N: redroot pigweed (criteria 0-5) (redroot pigweed [8]; [11]): 5 (Herbicidal rate of 90% or more (almost completely withered)) |
| CCOc1ccccc1-c1sc2cc(OC)ccc2c1-c1c(O)c(C)nn(C)c1=O [3-070] | – | – | – | – | – | – | – | – | – | – | – | – | – | – | – | – | J: blackgrass, herbicidal effect grade (blackgrass; [12]): 5 (Herbicidal rate of 90% or more (almost completely withered)); N: redroot pigweed, herbicidal effect grade (redroot pigweed [1]; [13]): 0 (Herbicidal rate of 5% or less (almost no effect)); herbicidal effect on barnyard grass (H) (barnyard grass [2]; 80 g/ha): 5 (Herbicidal rate of 90% or more (almost completely withered)); herbicidal effect on rice flat sedge (E) (rice flat sedge; 80 g/ha): 5 (Herbicidal rate of 90% or more (almost completely withered)); herbicidal effect rating, B: Japanese bulrush (Japanese bulrush; AAH 80 g/ha): 5 (Herbicidal rate of 90% or more (almost completely withered)); F: southern crabgrass, herbicidal effect grade (southern crabgrass; [12]): 5 (Herbicidal rate of 90% or more (almost completely withered)); P: chickweed, herbicidal effect grade (chickweed [3]; [12]): 5 (Herbicidal rate of 90% or more (almost completely withered)); Herbicidal effect, A: late watergrass (late watergrass; [13]): 5 (Herbicidal rate of 90% or more (almost completely withered)); H: barnyard grass, herbicidal effect grade (barnyard grass [4]; [13]): 0 (Herbicidal rate of 5% or less (almost no effect)); Herbicidal effect, C: oval-leafed pondweed (oval-leafed pondweed; [13]): 4 (Herbicidal rate of 70% or more and less than 90%); G: green foxtail, herbicidal effect grade (green foxtail [5]; [12]): 4 (Herbicidal rate of 70% or more and less than 90%); G: green foxtail, herbicidal effect grade (green foxtail [6]; [13]): 3 (Herbicidal rate of 40% or more and less than 70%); M: velvetleaf, herbicidal effect grade (velvetleaf; [13]): 0 (Herbicidal rate of 5% or less (almost no effect)); P: chickweed, herbicidal effect grade (chickweed [7]; [13]): 4 (Herbicidal rate of 70% or more and less than 90%); K: Italian ryegrass, herbicidal effect grade (Italian ryegrass; [12]): 4 (Herbicidal rate of 70% or more and less than 90%); N: redroot pigweed, herbicidal effect grade (redroot pigweed [8]; [12]): 5 (Herbicidal rate of 90% or more (almost completely withered)) |
